Data on 30 compounds can be found in US6541463B1, “Inhibitors of type 5 and type 3 17β-hydroxysteroid dehydrogenase and methods for their use” (Endorecherche, Inc., priority 1998, dated 2003).

The structures appear in SMILES notation. Where two headings read alike, the source gives them in different places.

This assay has as its target T1, androgen receptor (Rattus norvegicus, UniProt P15207).
T1 construct: from tissue; host or cells: ventral prostate cytosol of gonadectomized male Sprague-Dawley rats
T1 sequence (P15207 1-902): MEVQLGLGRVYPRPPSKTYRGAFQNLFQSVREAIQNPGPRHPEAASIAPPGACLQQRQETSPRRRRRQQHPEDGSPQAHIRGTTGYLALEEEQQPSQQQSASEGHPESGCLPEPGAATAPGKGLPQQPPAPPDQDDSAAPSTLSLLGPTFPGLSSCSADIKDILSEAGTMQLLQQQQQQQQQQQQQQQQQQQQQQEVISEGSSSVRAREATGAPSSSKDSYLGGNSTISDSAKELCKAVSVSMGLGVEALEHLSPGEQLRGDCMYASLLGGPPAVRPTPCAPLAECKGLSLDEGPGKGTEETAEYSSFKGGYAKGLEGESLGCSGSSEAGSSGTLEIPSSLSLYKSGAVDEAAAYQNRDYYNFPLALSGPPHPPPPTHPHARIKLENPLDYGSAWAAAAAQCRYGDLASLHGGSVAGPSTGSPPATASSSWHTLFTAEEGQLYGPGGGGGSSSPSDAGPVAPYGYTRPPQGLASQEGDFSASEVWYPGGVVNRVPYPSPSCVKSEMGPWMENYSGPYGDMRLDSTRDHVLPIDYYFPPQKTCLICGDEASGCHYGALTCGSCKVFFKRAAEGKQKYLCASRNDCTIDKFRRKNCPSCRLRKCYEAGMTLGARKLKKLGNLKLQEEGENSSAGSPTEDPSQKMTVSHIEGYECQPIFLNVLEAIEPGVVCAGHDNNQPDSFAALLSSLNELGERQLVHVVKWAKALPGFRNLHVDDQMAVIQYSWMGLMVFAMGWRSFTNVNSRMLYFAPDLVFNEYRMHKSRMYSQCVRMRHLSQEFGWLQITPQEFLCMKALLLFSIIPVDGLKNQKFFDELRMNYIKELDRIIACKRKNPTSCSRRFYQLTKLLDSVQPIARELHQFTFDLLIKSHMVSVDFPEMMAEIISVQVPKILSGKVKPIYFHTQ
The experiment in a line: Androgen receptor (AR) assay: inhibition of [3H]R1881 binding, prostate cytosol. Here is the method:
The manner in which the percentage of inhibition is determined is described in “Other Tests; D-Androgen Receptor (AR) Assays”. Lower numbers are desirable.
Male Sprague-Dawley rats (Crl: CD(SD)Br) weighing 200-300 g were obtained from Charles-River Inc. (St-Constant, Québec, Canada). The rats were gonadectomized under general anesthesia (Isoflurane) and killed by cervical dislocation 24 hours later. The ventral prostates were rapidly removed, dissected free from adhering tissue and frozen on dry-ice. Prostates were kept at −80° C. until assay.
All subsequent steps were performed at 0-4° C. Prostates were homogenized in 5 vol (wt/vol) of buffer A (25 mM Tris-HCl, 1.5 mM EDTA disodium salt, 10 mM α-monothioglycerol, 10% glycerol, and 10 mM sodium molybdate, pH 7.4), using a Polytron PT-10 homogenizer (Brinkman Instruments, Canada) at a setting of 5 for three periods of 10 sec, with intervals of 10 sec for cooling. The homogenate was then centrifuged at 105,000×g for 60 min in a Beckman L5-65 ultracentrifuge (Fullerton, Calif.).
Androgen binding was measured using the hydroxylapatite assay (HAP). In brief, the radioactive steroid [^3H]R1881 solubilized in ethanol was diluted into buffer A. Aliquots of prostate cytosol preparation (0.1 ml) were then incubated with 8 nM [^3H]R1881 (0.1 ml, ˜200,000 cpm) in the presence or absence of the indicated concentrations of unlabeled compounds (0.1 ml, prepared in buffer A containing 10% ethanol) for 16-18 h at 0-4° C. […] Unbound steroids were separated by incubation for 40 min at 0-4° C. with 0.3 ml HAP prepared in buffer P (50 mM, Tris-HCl, 10 mM KH2PO4, pH 7.4) as follows: 10 g HAP were washed with buffer P until the supernatant reached a pH of 7.4 and then following centrifugation and decantation of the supernatant, 37.5 ml of buffer P were added. After incubation with HAP and 10 minutes of centrifugation at 1,000×g, the pellet was washed 3 times with 1 ml buffer P. Thereafter, the radioactivity was extracted from the pellet by incubation at room temperature for 60 minutes with 1 ml EtOH. After centrifugation, the supernatant was decanted into a scintillation vial and the pellet was extracted again with ethanol.

As for `CC1CCC2(CCC3C4CCc5cc(O)c([N+](=O)[O-])cc5C4CCC32C)OC1=O` [EM-1126, 2-Nitro-1,3,5(10)-estratrien-3-ol-17(R)-spiro-2′-(5′-methyl-6′-oxo)tetrahydropyran], the “% Inhibition Androgen Receptor E^−6” value (Table 4′, E^−6) stood at 10%. The “% Inhibition Androgen Receptor E^−8” value (Table 4′, E^−8) was found to be 2%.
For the compound `C[C@]12CCC3c4ccc(O)cc4CCC3C1CC[C@@]21CCCC(=O)O1` (stereo partly drawn) [EM-919, 1,3,5(10)-estratrien-3-ol-17(R)-spiro-2′(6′-oxo)tetrahydropyran], for the setting “Table 4′, starred values, E^−5”, the “% Inhibition Androgen Receptor *E^−5” value was 6* %. In addition, the “% Inhibition Androgen Receptor *E^−7” value (Table 4′, starred values, E^−7) is 0* %.
Broadly, the inhibition is the relative decrease from the control value, in per cent. Compound `COCCOc1cc2c(cc1C(=O)O)C1CCC3(C)C(CCC34CCC(C)(C)C(=O)O4)C1CC2` [EM-1405, 2-Carboxy-3-(2″-methoxyethyloxy)-1,3,5(10)-estratrien-17(R)-spiro-2′-(5′,5′-dimethyl-6′-oxo)tetrahydropyran] yielded an inhibition at 1 µM (Table 4′, E^−6) of 0%. Further, testing at 0.01 µM (Table 4′, E^−8) gave an inhibition of 0%.
In the case of `COC(=O)CCCC(=O)O[C@]1(C(C)=O)CC[C@H]2[C@@H]3C=C(C)C4=CC(=O)CC[C@]4(C)[C@H]3CC[C@@]21C` [EM-1007, 6-Methyl-4,6-pregnadien-17α-ol-3,20-dione 4′-Carbomethoxybutyrate], the “% Inhibition Androgen Receptor” value is 0% (E^−6) and 0% (E^−8).
For the compound `CC(=O)O[C@]1(C)C(=O)CCC2C3C=C(C)C4=CC(=O)C=C[C@]4(C)C3CC[C@@]21C` (stereo partly drawn) [CS-237], the inhibition at 1 µM (read-out: % Inhibition Androgen Receptor E^−6) turned out to be 11%. The inhibition at 0.01 µM (read-out: % Inhibition Androgen Receptor E^−8) came out at 0%.
For `COCCOc1ccc2c(c1)C(=O)CC1C2CCC2(C)C1CCC21CCC(C)(C)C(=O)O1` (stereo not drawn) [EM-1408-CS], the inhibition at 1 µM (Table 4′, E^−6) turned out to be 0%. For the same compound, the inhibition at 0.01 µM (Table 4′, E^−8) stood at 0%.
`CCS(=O)(=O)Oc1ccc2c(c1)CCC1C2CCC2(C)C1CCC21CCC(C)(C)C(=O)O1` (stereo not drawn) [EM-1364-CS] gave an inhibition at 1 µM (Table 4′, E^−6) of 0%. Where the note is “Table 4′, E^−8”, this compound returned an inhibition at 0.01 µM of 0%.
Compound `CC1(C)CCC2(CCC3C4CCc5cc(O)c([N+](=O)[O-])cc5C4CCC32C)OC1=O` (stereo not drawn) [EM-1125-CS] yielded an inhibition at 1 µM (Table 4′, E^−6) of 1%. This compound had an inhibition at 0.01 µM (Table 4′, E^−8) of 2%.
For the setting “Table 5 column 13, E^−6”, `CN1C(=O)C=C[C@]2(C)C3CC[C@@]4(C)C(CC[C@@]45CCCC(=O)O5)C3CCC12` (stereo partly drawn) [EM-1122-CS] showed an inhibition at 1 µM of 8%. For the same compound, the inhibition at 0.01 µM (Table 5 column 13, E^−8) worked out at 1%.
Compound `CC1(C)CCC2(CCC3C4CCc5cc(OCCN6CCCCC6)ccc5C4CCC32C)OC1=O` [EM-1390-CS, 3-(N-piperidyl-ethyl)-1,3,5(10)-estratrien-17(R)-spiro-2′-(5′,5′-dimethyl-6′-oxo)-tetrahydropyran] displayed an inhibition at 1 µM (Table 4′, E^−6) of 0%. Also, the inhibition at 0.01 µM (Table 4′, E^−8) was 0%.
`COc1ccc2c(c1)C(=O)CC1C2CC[C@@]2(C)C1CC[C@@]21CCC(C)(C)C(=O)O1` (stereo partly drawn) [EM-1394] returned an inhibition at 1 µM (Table 4′, E^−6) of 0%. Also, for the setting “Table 4′, E^−8”, testing at 0.01 µM gave an inhibition of 0%.
In turn, `CC1(C)CCC2(CCC3C4CCc5c(cc(Cl)c(O)c5Cl)C4CCC32C)OC1=O` (stereo not drawn) [EM-1391-CS] gave an inhibition at 1 µM (Table 4′, E^−6) of 0%. Under “Table 4′, E^−8”, this compound yielded an inhibition at 0.01 µM of 0%.
On to `C[C@]12CCC3c4cc([N+](=O)[O-])c(O)cc4CCC3C1CC[C@@]21CCCC(=O)O1` (stereo partly drawn) [EM-1124, 2-Nitro-1,3,5(10)-estraetriene-3-ol-17(R)-spiro-2′-(6′-oxo)tetrahydropyran], for which at 1 µM the inhibition (Table 4′, E^−6) was 7%. Where the note is “Table 4′, E^−8”, this compound yielded an inhibition at 0.01 µM of 1%.
The like results for `COCCOc1cc2c(cc1C#N)C1CC[C@@]3(C)C(CC[C@@]34CCC(C)(C)C(=O)O4)C1CC2` (stereo partly drawn) [EM-1396] were, in that order, 2% and 0%.
The matching figures for `CSCCOc1ccc2c(c1)CCC1C2CCC2(C)C1CCC21CCCC(=O)O1` [CS-242, 3-Methylthioethyloxy-1,3,5(10)-estratrien-17(R)-spiro-2′-(6′-oxo) Tetrahydropyran]: 0% and 0%.
The matching figures for `COc1cc2c(cc1C)C1CCC3(C)C(CCC34CCC(C)(C)C(=O)O4)C1CC2` (stereo not drawn) [EM-1412-CS]: 0% and 0%.
As for `CC1(C)CCC2(CCC3C4CCc5cc(OS(C)(=O)=O)ccc5C4CCC32C)OC1=O` (stereo not drawn) [EM-1365-CS], the inhibition at 1 µM (Table 4′, E^−6) is 0%. Where the note is “Table 4′, E^−8”, the inhibition at 0.01 µM was 0%.
Under “E^−6”, `CCC[C@]1(F)CC2C3C=CC4=CC(=O)CC[C@]4(C)C3CC[C@]2(C)C1=O` (stereo partly drawn) [EM-1183] gave an inhibition at 1 µM of 1%. Moreover, where the note is “E^−8”, 0.01 µM produced 0% inhibition.
Compound `CC1(C)CC[C@@]2(CCC3C4CCc5cc(F)ccc5C4CC[C@@]32C)OC1=O` (stereo partly drawn) [EM-1157-CS] came in with an inhibition at 1 µM (Table 4′, E^−6) of 0%. Testing at 0.01 µM (Table 4′, E^−8) gave an inhibition of 0%.
As to `CC(=O)[C@@]1(OC(=O)CCCCF)CCC2C3C=C(C)C4=CC(=O)CC[C@]4(C)C3CC[C@@]21C` (stereo partly drawn) [EM-1195-CS], the “% Inhibition Androgen Receptor” value is, setting by setting: (E^−6) 62%; (E^−8) 1%.
The like results for `CCC(=O)O[C@]1(C(C)=O)CCC2C3C=C(C)C4=CC(=O)C[C@H](C)[C@]4(C)C3CC[C@@]21C` (stereo partly drawn) [CS-243] were, in that order, 33% and 0%.
Take `CC12CCC3c4ccc(F)cc4CCC3C1CCC21CCCC(=O)O1` (stereo not drawn) [EM-1170-CS]: the inhibition at 1 µM (Table 4′, E^−6) was determined as 1%. Where the note is “Table 4′, E^−8”, this compound showed an inhibition at 0.01 µM of 0%.
As for `COc1ccc(CC(=O)O[C@]2(C(C)=O)CCC3C4C=C(C)C5=CC(=O)C=C[C@]5(C)C4CC[C@@]32C)cc1` (stereo partly drawn) [EM-1291], the “% Inhibition Androgen Receptor” value by setting is: (E^−6) 0%; (E^−8) 0%.
For `COCCOc1cc2c(cc1C(=O)OC)C1CC[C@@]3(C)C(CC[C@@]34CCC(C)(C)C(=O)O4)C1CC2` (stereo partly drawn) [EM-1402-CS, 2-Carbomethoxy-3-(2″-methoxyethyloxy)-1,3,5(10)-estratrien 17(R)-spiro-2′-(5′,5′-dimethyl-6′-oxo)tetrahydropyran], the inhibition at 1 µM (Table 4′, E^−6) amounted to 0%. Where the note is “Table 4′, E^−8”, this compound showed an inhibition at 0.01 µM of 0%.
`C[C@]12CCC(=O)C=C1C=C[C@@H]1[C@@H]2CC[C@]2(C)C(=O)C3(CC4CC4C3)C[C@@H]12` (stereo partly drawn) [EM-1299, 4,6-Androstadien-3,17-dione-16-spirobicyclo[3′.1′.0′]-hexane]: the “% Inhibition Androgen Receptor E^−6” value (E^−6) is recorded as 3%. Also, the “% Inhibition Androgen Receptor E^−8” value (E^−8) is recorded as 1%.
Consider `COCCOc1cc2c(cc1Cl)C1CCC3(C)C(CCC34CCC(C)(C)C(=O)O4)C1CC2` (stereo not drawn) [EM-1371-CS], for which the inhibition at 1 µM (Table 4′, E^−6) was determined as 1%. The compound further returned an inhibition at 0.01 µM (Table 4′, E^−8) of 0%.
Regarding `CC1(C)CCC2(CCC3C4CCc5ccccc5C4CCC32C)OC1=O` (stereo not drawn) [CS-224], the inhibition at 1 µM (Table 4′, E^−6) is 0%. Besides, the inhibition at 0.01 µM (Table 4′, E^−8) was 0%.
`CC1(C)CC[C@@]2(CCC3C4CCc5cc(C(=O)O)ccc5C4CC[C@@]32C)OC1=O` (stereo partly drawn) [EM-1401, 3-Carboxy-1,3,5(10)-estratrien-17(R)-spiro-2′-(5′,5′-dimethyl-6′-oxo)tetrahydropyran] had an inhibition at 1 µM (Table 4′, E^−6) of 0%. The compound also registered an inhibition at 0.01 µM (Table 4′, E^−8) of 0%.
Compound `CN(C)CCOc1ccc2c(c1)CCC1C2CCC2(C)C1CCC21CCC(C)(C)C(=O)O1` (stereo not drawn) [EM-1389-CS] had an inhibition at 1 µM (Table 4′, E^−6) of 0%. Besides, the inhibition at 0.01 µM (Table 4′, E^−8) was 0%.
As to `CCCC(=O)OC1(C(C)=O)CCC2C3C=C(C)C4=CC(=O)CC(C)C4(C)C3CCC21C` (stereo not drawn) [CS-245], the “% Inhibition Androgen Receptor” value by setting is: (E^−6) 71%; (E^−8) 5%.
